The record followed here is patent US20260083865A1, “PROSTATE SPECIFIC MEMBRANE ANTIGEN (PSMA) LIGANDS AND USE THEREOF” (priority 2022, published 2026).

Assay [1] has as its target T1, PSMA-expressing C4-2 cells (Homo sapiens, UniProt Q04609).
T1 construct: PSMA-expressing C4-2 cells (ATCC, Cat. No. CRL-3314) were cultured in RPMI-1640; host or cells: C4-2 cells
Put plainly: FACS binding assay (competition with 50 nM PSM-0183). The conditions noted are these: C4-2 cells, read-out: pIC50 [C4-2] CAT (converted). How it is done: In order to determine binding of compounds according to the present invention to PSMA-expressing cells, a FACS binding assay was established.
PSMA-expressing C4-2 cells (ATCC, Cat. No. CRL-3314) were cultured in RPMI-1640 (Pan Biotech, Cat. No. P04-18050) including 10% fetal calf serum (Biochrom) and 100 U/ml penicillin and 100 μg/mL streptomycin (Sigma, Cat. No. P0781). Cells were detached with Accutase (Biolegend, Cat. No. BLD-423201) and washed in FACS buffer (PBS (Sigma, Cat. No. D8537) including 1% fetal calf serum). Cells were diluted in FACS buffer to a final concentration of 500,000 cells per mL. 200 μL of the cell suspension were transferred to a u-shaped non-binding 96-well plate (Greiner Bio-One, Cat. No. 650901) and cells were washed in ice-cold FACS buffer.
For IC50 determination, C4-2 cells were incubated with 50 nM PSM-0183 (Ac-Thr-Aib-Phe[Cys-Lys-Arg-Aib-Asn-Cys]-Tle-Thr-Asp-Ttds-Ttds-AF488N3K-NH2) in the presence of increasing concentrations of test compounds at 4° C. for 1 hour. After two wash steps with ice-cold FACS buffer, cells were analyzed in an Attune NxT flow cytometer. Median fluorescence intensities (MFI) of the FITC/AF488-channel were calculated by Attune NxT software. MFI values were plotted against peptide concentration and four parameter logistic (4PL) curve fitting and IC50/pIC50 calculations were performed using ActivityBase software (IDBS).

Assay [2] concerns the target T2, Fc-fusion protein of human PSMA (hPSMA-Fc) (Homo sapiens, UniProt Q04609).
T2 construct: purchased Acro Biosystems PSA-H5264
Put plainly: Surface plasmon resonance assay (Biacore T200, single cycle kinetic). To be noted: hPSMA-Fc, 25° C., read-out: pKD CAT (converted). The format is binding. How it is done: Surface plasmon resonance (SPR) studies were performed using a Biacore™ T200 SPR system. Briefly, polarized light is directed towards a gold-labeled sensor surface, and minimum intensity reflected light is detected. The angle of reflected light changes as molecules bind and dissociate.
Fc-fusion protein of human PSMA (hPSMA-Fc, Acro Biosystems, Cat #PSA-H5264) was captured on a Fc-capture chip (Biacore™ CM5 sensor chip coated with ˜300 RU of an Fc-binding peptide). hPSMA-Fc was diluted in Running Buffer (HBST, 0.1% DMSO) to a final concentration of 100 nM and then flushed over the Fc-capture chip to immobilized ˜1000 RUs.
Stock solutions of test compounds were prepared by dissolving each compound in DMSO. DMSO stock solution were diluted 1:1000 in Running Buffer without DMSO. Further sequential dilutions were made with Running Buffer containing 0.1% DMSO. SPR binding analyses were performed in Single Cycle Kinetic (SCK) mode at 25° C. Flow cell coated with the Fc-binding peptide only served as reference flowcell. After each SCK run, hPSMA-Fc was removed with 10 mM glycine buffer, pH 1.5.
In between every three SCK measurements, a blank run with Running Buffer instead of test compound was included to correct for baseline drifts (double blanking method).
Table 5 describes the protocol steps for Fc-fusion target capturing and assessment of the binding kinetics.
For each test compound, SPR raw data in the form of resonance units (RU) were plotted as sensorgrams using the Biacore™ T200 control software. The signal from the blank sensorgram was subtracted from that of the test compound sensorgram (blank corrected). The blank corrected sensorgram was corrected for baseline drift by subtracting the sensorgram of a SCK run without the test compound (running buffer only). The dissociation constant (KD) was calculated from Blank-normalized SPR data using the 1:1 Langmuir binding model from the Biacore™ Insight Evaluation software. The pKD value (negative decadic logarithm of dissociation constant) was calculated using Microsoft Excel.
(SPR reads the build-up and loss of mass on a sensor chip optically.)

The mark [3] stands for this setting: FACS binding, competition with 50 nM PSM-0183, category.
The mark [4] stands for this setting: SPR, single cycle kinetic, category.

Like-named read-outs stand apart in the source and are kept apart here. Bridge positions count the residues as written; N and C are the ends. Square brackets hold non-standard residues; d marks the D form. Peptide text beside a SMILES is read from it. * marks the point of attachment. ξ: configuration not given here. X19 = NC(=O)[C@H](CCCCNC(=O)CCCC[C@@H]1SC[C@@H]2NC(=O)N[C@@H]21)NC(=O)CCC(=O)NCCCOCCOCCOCCCNC(=O)CCC(=O)NCCCOCCOCCOCCCNC(=O)CCC(=O)NCCCOCCOCCOCCCN*; Phe(4-Cl) = N[C@@H](Cc1ccc(Cl)cc1)C(=O)O; Cit = NC(=O)NCCC[C@H](N)C(=O)O; Tle = CC(C)(C)[C@H](N)C(=O)O; Aib = CC(C)(N)C(=O)O; ξM = CSCCC(N)C(=O)O

T1 sequence (Q04609 whole entry): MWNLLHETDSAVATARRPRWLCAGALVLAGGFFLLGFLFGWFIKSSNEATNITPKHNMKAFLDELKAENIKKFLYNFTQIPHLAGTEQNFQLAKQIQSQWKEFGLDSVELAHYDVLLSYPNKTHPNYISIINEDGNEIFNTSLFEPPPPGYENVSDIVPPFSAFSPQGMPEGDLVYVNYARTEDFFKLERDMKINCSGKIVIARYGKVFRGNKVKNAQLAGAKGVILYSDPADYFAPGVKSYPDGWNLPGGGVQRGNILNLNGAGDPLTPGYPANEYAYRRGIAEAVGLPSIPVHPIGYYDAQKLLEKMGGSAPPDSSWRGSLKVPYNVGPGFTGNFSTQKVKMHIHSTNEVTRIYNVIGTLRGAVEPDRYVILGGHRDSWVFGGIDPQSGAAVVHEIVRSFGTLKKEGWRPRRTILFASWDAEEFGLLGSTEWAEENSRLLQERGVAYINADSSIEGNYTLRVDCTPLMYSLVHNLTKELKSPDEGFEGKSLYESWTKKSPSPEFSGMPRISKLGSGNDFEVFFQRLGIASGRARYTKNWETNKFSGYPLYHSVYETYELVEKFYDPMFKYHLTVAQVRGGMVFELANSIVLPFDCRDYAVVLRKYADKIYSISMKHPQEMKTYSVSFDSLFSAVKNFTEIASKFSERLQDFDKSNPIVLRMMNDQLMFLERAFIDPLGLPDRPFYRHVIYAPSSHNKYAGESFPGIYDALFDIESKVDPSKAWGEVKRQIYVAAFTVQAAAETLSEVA
T2 sequence (Q04609 44-750 limits assumed): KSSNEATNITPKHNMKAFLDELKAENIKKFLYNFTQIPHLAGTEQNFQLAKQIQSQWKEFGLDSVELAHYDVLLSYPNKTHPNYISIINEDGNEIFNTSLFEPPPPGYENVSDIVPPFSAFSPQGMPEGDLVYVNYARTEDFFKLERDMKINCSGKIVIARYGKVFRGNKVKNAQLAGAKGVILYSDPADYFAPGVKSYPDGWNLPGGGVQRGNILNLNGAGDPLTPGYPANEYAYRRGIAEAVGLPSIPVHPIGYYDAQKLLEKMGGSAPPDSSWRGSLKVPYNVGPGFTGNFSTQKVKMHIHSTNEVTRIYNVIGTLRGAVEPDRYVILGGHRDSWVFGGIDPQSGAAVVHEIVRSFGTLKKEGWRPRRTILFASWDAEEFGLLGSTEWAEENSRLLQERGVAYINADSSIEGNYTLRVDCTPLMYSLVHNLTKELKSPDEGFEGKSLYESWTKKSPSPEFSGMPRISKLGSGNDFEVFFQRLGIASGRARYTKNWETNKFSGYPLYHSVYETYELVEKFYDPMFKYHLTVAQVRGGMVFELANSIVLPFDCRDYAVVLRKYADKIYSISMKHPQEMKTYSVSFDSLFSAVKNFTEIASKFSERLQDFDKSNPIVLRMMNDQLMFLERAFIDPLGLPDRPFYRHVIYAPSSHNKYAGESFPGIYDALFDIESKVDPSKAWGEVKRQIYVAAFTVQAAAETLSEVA

On to `CCCC[C@H](NC(=O)[C@@H]1CSSC[C@H](NC(=O)[C@H](Cc2ccccc2)NC(=O)[C@H](C)NC(=O)[C@@H](NC(C)=O)[C@@H](C)O)C(=O)N[C@@H](CCCCN)C(=O)N[C@@H](CCCNC(=N)N)C(=O)N[C@@H](C)C(=O)N[C@@H](CC(N)=O)C(=O)N1)C(=O)N[C@H](C(=O)N[C@H](CC(=O)O)C(N)=O)[C@@H](C)O` (single isomer, unassigned) [PSM-0436, Ac-Thr-Ala-phe-[Cys-Lys-Arg-Ala-Asn-Cys]-Nle-Thr-Asp-NH2], for which the IC50 in assay [1] (pIC50 category of FACS binding) was greater than 3160 nM. Moreover, in assay [2] (pKD category for PSMA SPR activity assay), the Kd is greater than 501 nM. For `CC(=O)N[C@H](C(=O)NC(C)(C)C(=O)N[C@@H](Cc1ccccc1)C(=O)N[C@H]1CSSC[C@@H](C(=O)N[C@H](C(=O)N[C@H](C(N)=O)[C@@H](C)O)C(C)(C)C)NC(=O)[C@H](CC(N)=O)NC(=O)C(C)(C)NC(=O)[C@H](CCCNC(=N)N)NC(=O)[C@H](CCCCN)NC1=O)[C@@H](C)O` [PSM-0178, Ac-Thr-Aib-Phe-[Cys-Lys-Arg-Aib-Asn-Cys]-Tle-Thr-NH2] (Ac-T[Aib]FCKR[Aib]NC[Tle]T-NH2; disulfide 4-9), the IC50 in assay [1] (setting [3]) is less than 200 nM. Besides, the Kd in assay [2] (setting [4]) was less than 12.6 nM.

For `CC(=O)N[C@H](C(=O)NC(C)(C)C(=O)N[C@@H](Cc1ccc(Cl)cc1)C(=O)N[C@H]1CSSC[C@@H](C(=O)N[C@H](C(=O)N[C@H](C(N)=O)[C@@H](C)O)C(C)(C)C)NC(=O)[C@H](CC(N)=O)NC(=O)C(C)(C)NC(=O)[C@H](CCCNC(N)=O)NC(=O)[C@H](CCCCN)NC1=O)[C@@H](C)O` [PSM-0179, Ac-Thr-Aib-Pcf-[Cys-Lys-Cit-Aib-Asn-Cys]-Tle-Thr-NH2] (Ac-T[Aib][Phe(4-Cl)]CK[Cit][Aib]NC[Tle]T-NH2; disulfide 4-9), the IC50 in assay [1] (setting [3]) is less than 200 nM. Further, the Kd in assay [2] (setting [4]) was less than 12.6 nM. Take `CC(=O)N[C@H](C(=O)NC(C)(C)C(=O)N[C@@H](Cc1ccccc1)C(=O)N[C@H]1CSSC[C@@H](C(=O)N[C@H](C(=O)N[C@H](C(=O)N[C@@H](CC(=O)O)C(=O)NCCCOCCOCCOCCCNC(=O)CCC(=O)NCCCOCCOCCOCCCNC(=O)CCC(=O)N[C@H](CCCCn2nnc3c2-c2ccccc2CN(C(=O)CCNC(=O)c2ccc(-c4c5ccc(=N)c(S(=O)(=O)O)c-5oc5c(S(=O)(=O)O)c(N)ccc45)c(C(=O)O)c2)c2ccccc2-3)C(N)=O)[C@@H](C)O)C(C)(C)C)NC(=O)[C@H](CC(N)=O)NC(=O)C(C)(C)NC(=O)[C@H](CCCNC(=N)N)NC(=O)[C@H](CCCCN)NC1=O)[C@@H](C)O` [PSM-0183, Ac-Thr-Aib-Phe-[Cys-Lys-Arg-Aib-Asn-Cys]-Tle-Thr-Asp-Ttds-Ttds-AF488N3K-NH2]: in assay [2] (setting [4]), the Kd is less than 12.6 nM. On to `CSCCC(N)C(=O)N[C@H](C(=O)N[C@@H](C)C(=O)N[C@@H](Cc1ccccc1)C(=O)N[C@H]1CSSC[C@@H](C(=O)N[C@@H](CC(C)C)C(=O)N[C@H](C(=O)N[C@@H](CC(=O)O)C(=O)NCC(=O)N[C@@H](CO)C(=O)NCCCOCCOCCOCCCNC(=O)CCC(=O)NCCCOCCOCCOCCCNC(=O)CCC(=O)NCCCOCCOCCOCCCNC(=O)CCC(=O)N[C@@H](CCCCNC(=O)CCCC[C@@H]2SC[C@@H]3NC(=O)N[C@@H]32)C(N)=O)[C@@H](C)O)NC(=O)[C@H](CC(N)=O)NC(=O)[C@H](C)NC(=O)[C@H](CCCNC(=N)N)NC(=O)[C@H](CCCCN)NC1=O)[C@@H](C)O` (stereo partly drawn) [PSM-0226, H-Met-Thr-Ala-Phe-[Cys-Lys-Arg-Ala-Asn-Cys]-Leu-Thr-Asp-Gly-Ser-Ttds-Ttds-Ttds-Lys(Bio)-NH2] (H-[ξM]TAFCKRANCLTDGS-X19; disulfide 5-10), for which the IC50 in assay [1] (setting [3]) is 200 to 1260 nM.
